Assay results from patent publication US8012971B2, “Therapeutic agent for chronic obstructive pulmonary disease” (Dainippon Sumitomo Pharma Co., Ltd., priority 2005, dated 2011).

How the values were obtained:
[1] = system: Guinea Pig Chronic Obstructive Pulmonary Disease (COPD) Model; experiment: Histological investigations of lung in guinea pig COPD model; type: in vivo
Experimental: (§1) An evaluation was carried out as follows according to a report of Kosuke MORIZUMI, Junichi FUCHIGAMI et al., 2002, The 75th Annual Meeting of the Japanese Pharmacological Society (2002) Abstract No. P-259, “Study of a chronic obstructive pulmonary disease-Effects of theophylline on respiratory function and lung function of guinea pigs in an exposure of cigarette smoke.”
(§2) Male Hartley strain guinea pigs (purchased from Japan SLC, Inc.) were taken in a cigarette exposure holder (RMH-TUBES, manufactured by Muenster Ltd.) to secure them to an exposure chamber (Flow-past type nose-only inhalation chamber, manufactured by Muenster Ltd.), and allowed to inhale cigarette smoke (Hi-Lite, manufactured by Japan Tobacco Inc.) for 60 minutes per day for 5 days in a week, totally 4 weeks using a smoking exposure equipment (Hamburg II, manufactured by Borgwaldt Technik), while the exposure was carried out for 4 days in the 4th week. • (2) Drug Administrations
(§3) Each 0.5% MC suspension of a test drug was orally administered daily in 5 ml/weight (kg) once a day for 25 days from the first day of the exposure. To a sham-exposure group and a control group was orally administered a 0.5% MC suspension in a similar manner. Any oral administrations were carried out 0.5 to 1 hours before exposures on a cigarette-smoke-exposure day or after measurements when measuring respiratory functions. A drug was not administered on the day for measurement of respiratory functions after finishing the 4th week of the exposure. • (3) Measurements of Airway Resistance
After collection of BALF, trachea and lung were isolated. The ligation site of the left lung was opened, injected neutral formalin buffer into trachea, bronchi and lung at the pressure of 20 cm H2O via cannula fixed on the side of the lung, and the lung tissue was extended to be fixed. According to a conventional method, tissue section samples were produced using posterior lobe of the left lung and hematoxylin-eosin (HE) stain was carried out. Any other lung tissues were stored in neutral formalin buffers. Drug efficacies of the produced tissue samples were evaluated by scoring tissue changes under the microscope. The criteria of scores were shown as follows: −: none, ±: minimal, +: mild, ++: moderate, +++: severe. Each quantification was calculated as 0, 1, 2, 3, 4.

[2] = system: Guinea Pig Chronic Obstructive Pulmonary Disease (COPD) Model; experiment: Inflammatory cells in bronchoalveolar fluid in guinea pig COPD model; type: in vivo; conditions: for Cell number in BALF, Macrophage / Cell number in BALF, Neutrophil / Cell number in BALF, Total: mean ± SEM of 8 animals
Experimental: as §1, §2, §3
After measuring lung functions, animals were exsanguinated to death and opened the thorax, ligated the left bronchial bifurcation, and then injected saline (2.5 mL) into the right lung and aspirated the same via fixed cannula on measuring lung functions repeatedly in twice (totally 5 mL), and the recovery solution was obtained as a bronchoalveolar lavage fluid (BALF). BALF was centrifuged (230×g, 4° C., for 10 minutes) to give cell pellets. The pellets were suspended in saline (0.5 mL), and to a part of the suspension was added Turk solution (manufactured by Wako Pure Chemical Industries, Ltd.) so as to dilute 10 to 20 folds. Leukocyte numbers per 0.1 μL were measured by a blood cell counting chamber and leukocyte numbers per 1 μL were calculated. Cell suspensions were prepared again, smears were prepared using about 2000 to 3000 total cell numbers, May-Grunwald-Giemsa stain was carried out, leukocyte numbers were counted under the microscope, a ratio of each leukocyte number to total leukocyte number was obtained, and each cell number per 1 μL was calculated based on the ratio. Results are shown in each cell number per 1 μL.

[3] = 30 mg/kg/day for 25 days, 8 animals
[4] = groups of 10 mg/kg and 30 mg/kg, result in words

`CNC(=O)NCCn1c(-c2ccc(N3CCOCC3)cc2)csc1=Nc1cccc(F)c1` [SMP-028, N-{2-[2-[(3-fluorophenyl)imino]-4-(4-morpholinophenyl)-thiazol-3(2H)-yl]ethyl}-N′-methylurea] was tested, and the “Number of animals with grade + (mild): A. Hyperplasia, epithelial cell, bronchus” value [1, 3] was 0, the “Number of animals with grade + (mild): B. Cellular exudation, neutrophil/eosinophil, lumen, bronchiole” value [1, 3] was 0 and the “Number of animals with grade + (mild): C. Thickening, alveolar wall” value [1, 3] was 1. For the same molecule, the “Number of animals with grade + (mild): D. Accumulation, foamy/macrophage-like cell, alveolus” value [1, 3] was 2, the “Number of animals with grade + (mild): E. Cellular infiltration, neutrophil, alveolus” value [1, 3] was 0 and the “Number of animals with grade ++ (moderate): A. Hyperplasia, epithelial cell, bronchus” value [1, 3] was 0. The “Number of animals with grade ++ (moderate): B. Cellular exudation, neutrophil/eosinophil, lumen, bronchiole” value [1, 3] was 0, the “Number of animals with grade ++ (moderate): C. Thickening, alveolar wall” value [1, 3] was 0 and the “Number of animals with grade ++ (moderate): D. Accumulation, foamy/macrophage-like cell, alveolus” value [1, 3] was 0. For the same molecule, the “Number of animals with grade ++ (moderate): E. Cellular infiltration, neutrophil, alveolus” value [1, 3] was 0, the “Number of animals with grade +++ (severe): A. Hyperplasia, epithelial cell, bronchus” value [1, 3] was 0 and the “Number of animals with grade +++ (severe): B. Cellular exudation, neutrophil/eosinophil, lumen, bronchiole” value [1, 3] was 0. The “Number of animals with grade +++ (severe): C. Thickening, alveolar wall” value [1, 3] was 0, the “Number of animals with grade +++ (severe): D. Accumulation, foamy/macrophage-like cell, alveolus” value [1, 3] was 0 and the “Number of animals with grade +++ (severe): E. Cellular infiltration, neutrophil, alveolus” value [1, 3] was 0. The “Number of animals with grade ± (minimal): A. Hyperplasia, epithelial cell, bronchus” value [1, 3] was 0, the “Number of animals with grade ± (minimal): B. Cellular exudation, neutrophil/eosinophil, lumen, bronchiole” value [1, 3] was 0 and the “Number of animals with grade ± (minimal): C. Thickening, alveolar wall” value [1, 3] was 2. The “Number of animals with grade ± (minimal): D. Accumulation, foamy/macrophage-like cell, alveolus” value [1, 3] was 3, the “Number of animals with grade ± (minimal): E. Cellular infiltration, neutrophil, alveolus” value [1, 3] was 0 and the “Number of animals with grade − (none): A. Hyperplasia, epithelial cell, bronchus” value [1, 3] was 8. For the same molecule, the “Number of animals with grade − (none): B. Cellular exudation, neutrophil/eosinophil, lumen, bronchiole” value [1, 3] was 8, the “Number of animals with grade − (none): C. Thickening, alveolar wall” value [1, 3] was 5 and the “Number of animals with grade − (none): D. Accumulation, foamy/macrophage-like cell, alveolus” value [1, 3] was 3. For the same molecule, the “Number of animals with grade − (none): E. Cellular infiltration, neutrophil, alveolus” value [1, 3] was 8, the “accumulation of foamy cells/macrophage-like cells within the alveoli and thickening of the alveolar wall” value [1, 4] was “tended to be suppressed” and the “scored pathological findings (FIG. 2) relative to control group” value ([1]; scores 0-4 for grades − to +++, result in words) was “tended to be dose-dependently suppressed”. The “Cell number in BALF, Macrophage” value ([2]; 10 mg/kg/day oral) was 2506 ± 313 ^NS cells/μL, the “Cell number in BALF, Neutrophil” value ([2]; 10 mg/kg/day oral) was 1114 ± 193 ^NS cells/μL and the “Cell number in BALF, Total” value ([2]; 10 mg/kg/day oral) was 4044 ± 419 ^NS cells/μL. The “Cell number in BALF, Macrophage” value ([2]; 30 mg/kg/day oral) was 2497 ± 483 ^NS cells/μL, the “Cell number in BALF, Neutrophil” value ([2]; 30 mg/kg/day oral) was 772 ± 277 ^NS cells/μL and the “Cell number in BALF, Total” value ([2]; 30 mg/kg/day oral) was 3897 ± 783 ^NS cells/μL. For the same molecule, the “infiltrations of the inflammatory cells in the airway” value [2, 4] was “tended to be suppressed”.
